Laboratory results from ChEMBL document CHEMBL3885881, “DrugMatrix”.

Organism: Rattus norvegicus
Assay: DrugMatrix - Regimen: Daily Repeat
Type: toxicity, organism-based, Sprague-Dawley
Set-up: regimen Daily Repeat, gender Male, age 6-8 weeks
Details: in vivo, po, route oral GAVAGE, vehicle 100 % WATER; for ABSOLUTE BASOPHIL / ABSOLUTE EOSINOPHIL / ABSOLUTE LYMPHOCYTE / ABSOLUTE MONOCYTE / ABSOLUTE SEGMENTED NEUTROPHIL / BASOPHIL / EOSINOPHIL / ERYTHROCYTE COUNT / HEMATOCRIT / HEMOGLOBIN / LEUKOCYTE COUNT / LYMPHOCYTE / MEAN CORPUSCULAR HEMOGLOBIN / MEAN CORPUSCULAR HEMOGLOBIN CONCENTRATION / MEAN CORPUSCULAR VOLUME / MONOCYTE / NEUTROPHIL / NUCLEATED RED BLOOD CELLS / PLATELET COUNT: tissue Blood; for ALANINE AMINOTRANSFERASE / ALBUMIN / ALKALINE PHOSPHATASE / ASPARTATE AMINOTRANSFERASE / BLOOD UREA NITROGEN / CARBON DIOXIDE / CHLORIDE / CHOLESTEROL / CREATINE PHOSPHOKINASE / CREATININE / GLUCOSE / LACTATE DEHYDROGENASE / LIPASE / PHOSPHORUS / POTASSIUM / SODIUM / TOTAL BILIRUBIN / TOTAL PROTEIN / URIC ACID: tissue Plasma
[1] = 120 mg/kg, 72 h, dose level Low, time 3 day
[2] = 120 mg/kg, 120 h, dose level Low, time 5 day
[3] = 1200 mg/kg, 72 h, dose level High, time 3 day
[4] = 1200 mg/kg, 120 h, dose level High, time 5 day

O=C(O)CNCP(=O)(O)O [GLYPHOSATE]
ABSOLUTE BASOPHIL [1]: 0 CELLS/uL | ABSOLUTE EOSINOPHIL [1]: 153 CELLS/uL | ABSOLUTE LYMPHOCYTE [1]: 11957 CELLS/uL | ABSOLUTE MONOCYTE [1]: 0 CELLS/uL | ABSOLUTE SEGMENTED NEUTROPHIL [1]: 890 CELLS/uL | BASOPHIL [1]: 0% | EOSINOPHIL [1]: 1.33% | ERYTHROCYTE COUNT [1]: 5.56 x10E6/uL | HEMATOCRIT [1]: 35.93% | HEMOGLOBIN [1]: 13.4 G/DL | LEUKOCYTE COUNT [1]: 13 x10E3/uL | LYMPHOCYTE [1]: 92% | MEAN CORPUSCULAR HEMOGLOBIN [1]: 24.1 pg | MEAN CORPUSCULAR HEMOGLOBIN CONCENTRATION [1]: 37.3 G/DL | MEAN CORPUSCULAR VOLUME [1]: 64.57 fL | MONOCYTE [1]: 0% | NEUTROPHIL [1]: 6.67% | NUCLEATED RED BLOOD CELLS [1]: 0 /100WBC | PLATELET COUNT [1]: 1067 x10E3/uL | ALANINE AMINOTRANSFERASE [1]: 56 u/L | ALBUMIN [1]: 4.13 G/DL | ALKALINE PHOSPHATASE [1]: 286.67 u/L | ASPARTATE AMINOTRANSFERASE [1]: 100.67 u/L | BLOOD UREA NITROGEN [1]: 15 mg/dL | CARBON DIOXIDE [1]: 24.67 mmol/L | CHLORIDE [1]: 103.33 MEQ/L | CHOLESTEROL [1]: 75 mg/dL | CREATINE PHOSPHOKINASE [1]: 1135.33 u/L | CREATININE [1]: 0.29 mg/dL | GLUCOSE [1]: 198.67 mg/dL | LACTATE DEHYDROGENASE [1]: 150.67 u/L | LIPASE [1]: 8 u/L | PHOSPHORUS [1]: 14.7 mg/dL | POTASSIUM [1]: 6.43 MEQ/L | SODIUM [1]: 145.93 MEQ/L | TOTAL BILIRUBIN [1]: 0.27 mg/dL | TOTAL PROTEIN [1]: 5.87 G/DL | URIC ACID [1]: 1.73 mg/dL | ABSOLUTE BASOPHIL [2]: 0 CELLS/uL | ABSOLUTE EOSINOPHIL [2]: 327.33 CELLS/uL | ABSOLUTE LYMPHOCYTE [2]: 13510 CELLS/uL | ABSOLUTE MONOCYTE [2]: 0 CELLS/uL | ABSOLUTE SEGMENTED NEUTROPHIL [2]: 1496 CELLS/uL | BASOPHIL [2]: 0% | EOSINOPHIL [2]: 2% | ERYTHROCYTE COUNT [2]: 5.7 x10E6/uL | HEMATOCRIT [2]: 34.73% | HEMOGLOBIN [2]: 13.27 G/DL | LEUKOCYTE COUNT [2]: 15.33 x10E3/uL | LYMPHOCYTE [2]: 88.33% | MEAN CORPUSCULAR HEMOGLOBIN [2]: 23.27 pg | MEAN CORPUSCULAR HEMOGLOBIN CONCENTRATION [2]: 38.23 G/DL | MEAN CORPUSCULAR VOLUME [2]: 60.93 fL | MONOCYTE [2]: 0% | NEUTROPHIL [2]: 9.67% | NUCLEATED RED BLOOD CELLS [2]: 0 /100WBC | PLATELET COUNT [2]: 1299.33 x10E3/uL | ALANINE AMINOTRANSFERASE [2]: 51.33 u/L | ALBUMIN [2]: 4.47 G/DL | ALKALINE PHOSPHATASE [2]: 337.33 u/L | ASPARTATE AMINOTRANSFERASE [2]: 87.33 u/L | BLOOD UREA NITROGEN [2]: 15.67 mg/dL | CARBON DIOXIDE [2]: 25 mmol/L | CHLORIDE [2]: 103.67 MEQ/L | CHOLESTEROL [2]: 64 mg/dL | CREATINE PHOSPHOKINASE [2]: 252 u/L | CREATININE [2]: 0.19 mg/dL | GLUCOSE [2]: 168.33 mg/dL | LACTATE DEHYDROGENASE [2]: 300.67 u/L | LIPASE [2]: 8.67 u/L | PHOSPHORUS [2]: 12.53 mg/dL | POTASSIUM [2]: 6.55 MEQ/L | SODIUM [2]: 145.77 MEQ/L | TOTAL BILIRUBIN [2]: 0.13 mg/dL | TOTAL PROTEIN [2]: 6.1 G/DL | URIC ACID [2]: 1.9 mg/dL | ABSOLUTE BASOPHIL [3]: 0 CELLS/uL | ABSOLUTE EOSINOPHIL [3]: 430 CELLS/uL | ABSOLUTE LYMPHOCYTE [3]: 12770 CELLS/uL | ABSOLUTE MONOCYTE [3]: 0 CELLS/uL | ABSOLUTE SEGMENTED NEUTROPHIL [3]: 3000 CELLS/uL | BASOPHIL [3]: 0% | EOSINOPHIL [3]: 2.67% | ERYTHROCYTE COUNT [3]: 5.53 x10E6/uL | HEMATOCRIT [3]: 35% | HEMOGLOBIN [3]: 13.4 G/DL | LEUKOCYTE COUNT [3]: 16.2 x10E3/uL | LYMPHOCYTE [3]: 79.33% | MEAN CORPUSCULAR HEMOGLOBIN [3]: 24.3 pg | MEAN CORPUSCULAR HEMOGLOBIN CONCENTRATION [3]: 38.3 G/DL | MEAN CORPUSCULAR VOLUME [3]: 63.37 fL | MONOCYTE [3]: 0% | NEUTROPHIL [3]: 18% | NUCLEATED RED BLOOD CELLS [3]: 0 /100WBC | PLATELET COUNT [3]: 1325.33 x10E3/uL | ALANINE AMINOTRANSFERASE [3]: 51.33 u/L | ALBUMIN [3]: 4.17 G/DL | ALKALINE PHOSPHATASE [3]: 418.33 u/L | ASPARTATE AMINOTRANSFERASE [3]: 78.33 u/L | BLOOD UREA NITROGEN [3]: 15.33 mg/dL | CARBON DIOXIDE [3]: 27.33 mmol/L | CHLORIDE [3]: 101 MEQ/L | CHOLESTEROL [3]: 60.33 mg/dL | CREATINE PHOSPHOKINASE [3]: 226.67 u/L | CREATININE [3]: 0.19 mg/dL | GLUCOSE [3]: 167 mg/dL | LACTATE DEHYDROGENASE [3]: 154.67 u/L | LIPASE [3]: 8.67 u/L | PHOSPHORUS [3]: 13.27 mg/dL | POTASSIUM [3]: 6.4 MEQ/L | SODIUM [3]: 145.67 MEQ/L | TOTAL BILIRUBIN [3]: 0.1 mg/dL | TOTAL PROTEIN [3]: 5.83 G/DL | URIC ACID [3]: 1.47 mg/dL | ABSOLUTE BASOPHIL [4]: 0 CELLS/uL | ABSOLUTE EOSINOPHIL [4]: 318.67 CELLS/uL | ABSOLUTE LYMPHOCYTE [4]: 13433.33 CELLS/uL | ABSOLUTE MONOCYTE [4]: 0 CELLS/uL | ABSOLUTE SEGMENTED NEUTROPHIL [4]: 2014.67 CELLS/uL | BASOPHIL [4]: 0% | EOSINOPHIL [4]: 2% | ERYTHROCYTE COUNT [4]: 5.83 x10E6/uL | HEMATOCRIT [4]: 36% | HEMOGLOBIN [4]: 13.47 G/DL | LEUKOCYTE COUNT [4]: 15.77 x10E3/uL | LYMPHOCYTE [4]: 84.67% | MEAN CORPUSCULAR HEMOGLOBIN [4]: 23.1 pg | MEAN CORPUSCULAR HEMOGLOBIN CONCENTRATION [4]: 37.47 G/DL | MEAN CORPUSCULAR VOLUME [4]: 61.7 fL | MONOCYTE [4]: 0% | NEUTROPHIL [4]: 13.33% | NUCLEATED RED BLOOD CELLS [4]: 0 /100WBC | PLATELET COUNT [4]: 1271.67 x10E3/uL | ALANINE AMINOTRANSFERASE [4]: 65.33 u/L | ALBUMIN [4]: 4.43 G/DL | ALKALINE PHOSPHATASE [4]: 391.33 u/L | ASPARTATE AMINOTRANSFERASE [4]: 82.33 u/L | BLOOD UREA NITROGEN [4]: 16.33 mg/dL | CARBON DIOXIDE [4]: 27.33 mmol/L | CHLORIDE [4]: 102.67 MEQ/L | CHOLESTEROL [4]: 68.67 mg/dL | CREATINE PHOSPHOKINASE [4]: 204.33 u/L | CREATININE [4]: 0.15 mg/dL | GLUCOSE [4]: 177 mg/dL | LACTATE DEHYDROGENASE [4]: 87 u/L | LIPASE [4]: 9 u/L | PHOSPHORUS [4]: 12.33 mg/dL | POTASSIUM [4]: 6.56 MEQ/L | SODIUM [4]: 147.4 MEQ/L | TOTAL BILIRUBIN [4]: 0.13 mg/dL | TOTAL PROTEIN [4]: 6.03 G/DL | URIC ACID [4]: 1.9 mg/dL
